# Experimental data reported in patent publication EP4124338A1, “SIGMA-1 RECEPTOR ACTIVATOR FOR USE IN THE TREATMENT OF A PATHOLOGY ASSOCIATED WITH WFS1 MUTATION” (Université de Montpellier, priority 2021, dated 2023).
# Where a name gives a salt, the structure may show the parent alone.
# What was measured:
# Wfs1^ΔExon8 mice [1] = experiment: Object recognition test (short-term recognition memory); type: in vivo; details: male Wfs1^ΔExon8 mice
# From the text: (§1) Drugs and administration procedures: 2-(4-morpholinethyl)-1-phenylcyclohexanecarboxylate hydrochloride (PRE-084) was from Sigma-Aldrich (Saint-Quentin-Fallavier, France). […]
# Object recognition test: The test measures short-term recognition memory. The apparatus consisted in four squared open-fields (50 cm × 50 cm × 50 cm high) made in white Plexiglas and placed on a floor equipped with infrared (IR) light emitting diodes. The locomotor activity of the animal and position of their nose could be captured through an IR-sensitive camera and analyzed using the Videotrack® and Nosetrack® softwares (Viewpoint). Session 1: animals were allowed to acclimate during 10 min to the open-field. The mouse locomotion was analyzed by videotracking. […] Each mouse was placed in the open-field and the exploratory activity and nose position was recorded during 10 min. The activity was analyzed by videotracking in terms of number of contacts with the objects and duration of contacts. […] Each mouse was placed again in the open-field and the exploratory activity recorded during 10 min. The activity was analyzed similarly. The preferential exploration index was calculated as the ratio of the number of contacts with the object in position 2 over the total number of contacts with the two objects. […]
# Wfs1ab^KO larvae = experiment: Visual Motor Response (VMR), locomotor activity of larvae during light OFF periods; type: in vivo, zebrafish; details: Fig. 9
# Description: Zebrafish Generation: All experiments were performed in accordance with the 2010/63/EU Directive and the ARRIVE guidelines. Zebrafish were purchased at the KIT - European Zebrafish Resource Center. Heterozygous Wfs1a^C799X and Wfs1b^W493X mutant line were maintained in an automated fish tank system (ZebTEC, Tecniplast) at 28°C, pH 7, conductivity around 500 µS and with a 14h:10h light:dark cycle. They were fed with standard diet. Heterozygous Wfs1a^C799X/+ zebrafish were crossed to generate wild-type (Wfs1a^WT) and homozygous mutant Wfs1a^C799X zebrafish (Wfs1a^C799X), which became progenitors in order to generate future generations for the experiments. […]
# Visual Motor Response (VMR): The VMR assay quantifies the locomotor activity of zebrafish larvae to light changes using infrared tracking system. […] At 5-dpf, the locomotor behavior of larvae was monitored by using an automated videotracking device (Zebrabox®, ViewPoint) by employing a DinionXF 1/3-inch Monochrome camera (model BFLY-PGE-13H2M, FLIR) fitted with a fixed-angle megapixel lens (SR5014MP-5C, SEIKO Optical). […] The floor of the box emitted by a light-controlling unit a white light (69-83 µW/cm2 measured at 495 λ). The response to stimuli was recorded by an infra-red (IR) camera (25 frames/s) under IR light illumination at 850 nm, which the animals could not perceive. […] The distance covered was measured in mm/s. […]
# Wfs1^ΔExon8 mice [2] = experiment: Black-and-white exploration box test (anxiety); type: in vivo; details: female Wfs1^ΔExon8 mice, 0.3 mg/kg ip 30 min before
# From the text: as §1
# Black-and-white exploration box test: Anxiety level of WFS1 KO mice was first examined using the black-and-white exploration box. It consisted of two adjacent compartments (23 × 16 × 10 cm^3) separated by a small opening (6 × 6 cm^2). The light compartment is brightly lit from above and covered with a transparent lid, and the dark compartment is covered with a black lid. Mice were placed in the light box, and exploration measured during 10 min by IR videotracking (Viewpoint). The time spent in each compartment and number of crossings among compartments were recorded. The time in the light compartment per visit was calculated. […] Seven animals were discarded accordingly corresponding to 14% attrition.
# (§2) Experimental series: For phenotyping, animals were tested in series in the different behavioral tests assessing activity, learning and memory or anxiety, finishing with the most stressful procedures: (1) open-field (1 day), (2) spontaneous alternation (1 day), (3) object recognition (2 days), (4) place learning in the water-maze water-maze (5+2 days), (5) passive avoidance (2 days), (6) elevated plus-maze (1 day), and (7) black-and-white box exploration (1 day), in that order and over 16 days. For PRE-084 treatment experiments, animals were tested in series on a limited number of tests: spontaneous alternation (1 day), object recognition (2 days) and passive avoidance (2 days) for males, elevated plus-maze (1 day) and black-and-white box (1 day) for females.
# Wfs1^ΔExon8 mice [3] = experiment: Spontaneous alternation in the Y-maze (spatial working memory); type: in vivo; details: male Wfs1^ΔExon8 mice; PRE-084 0.3 mg/kg ip (legend b25; b84 says 1 mg/Kg) 30 min before the Y-maze session; Fig. 2
# From the text: as §1
# Spontaneous alternation in the Y-maze: The test assesses spatial working memory. The maze was made of grey polyvinylchloride. Each arm was 40 cm long, 13 cm high, 3 cm wide at the bottom, 10 cm wide at the top, and converging at an equal angle. Each mouse was placed at the end of one arm and allowed to move freely through the maze during an 8 min session. The series of arm entries, including possible returns into the same arm, was recorded visually. An alternation was defined as entries into all three arms on consecutive occasions. The number of maximum alternations was therefore the total number of arm entries minus two and the percentage of alternation was calculated as (actual alternations/maximum alternations) × 100. […] Thirteen animals were discarded accordingly corresponding to 26% attrition. […]
# Wfs1^ΔExon8 mice [4] = experiment: Elevated plus-maze test (anxiety); type: in vivo; details: female Wfs1^ΔExon8 mice, 0.3 mg/kg ip 30 min before
# From the text: as §1
# Elevated plus-maze test: The apparatus consisted of two open arms (24 × 8 cm^2), in white PVC, and two enclosed arms (24 × 8 × 20 cm^3), in dark grey PVC. The arms extended from a central platform (8 × 8 cm), and the maze was elevated to a height of 50 cm above the floor. Each mouse was placed at the centre of the plus-maze and its exploration behaviour was recorded during 10 min. The time spent and numbers of entries into the enclosed or open arms were recorded. Results were expressed as total number of entries into the arms, time spent in the open arms, time spent per visit in the open arms.
# as §2
# Wfs1^ΔExon8 mice [5] = experiment: Place learning in the water-maze (spatial reference memory); type: in vivo
# Description: as §1
# Place learning in the water-maze: Spatial reference memory was analyzed using a water-maze procedure. A transparent Plexiglas non-slippery platform (Ø 10 cm) was immersed in a circular pool (Ø 140 cm, height 40 cm), under the water surface during acquisition. The water temperature, 23 ± 1°C, light intensity, external cues in the room, and water opacity were rigorously reproduced. Swimming was videotracked (Viewpoint), with trajectories being analyzed as latencies and distances. The software divided the pool into four quadrants. Training consisted in three swims per day for 6 days, with 15 min intertrial-time interval. Start positions, set at each limit between quadrants, were randomly selected and each mouse was allowed a 90 s swim to find the platform, initially placed in the NE quadrant. […] The median latency and swim path length were calculated for each training day. Acquisition slopes were also calculated individually over the acquisition period. Forty-eight hours after the last swim, on day 7, a probe test was performed during which the platform was removed and each animal allowed a free 60 s swim. The time spent in the training (T) quadrant and the average of time spent in the 3 others (o) were determined. On days 8, mice were re-tested in the water-maze for assessing visual ability and non-spatial learning. They were submitted to the acquisition of a visible platform placed in a new location, with training consisting in three swims per day with 15 min intertrial-time interval. Swimming was analyzed as latencies. No exclusion criterion has been set in this test.
# Wfs1^ΔExon8 mice [6] = experiment: Step-through type passive avoidance test (non-spatial long-term memory); type: in vivo; details: male Wfs1^ΔExon8 mice, 0.3 mg/kg ip 30 min before training, retention
# From the text: as §1
# Step-through type passive avoidance test: The test measures non-spatial long-term memory. The apparatus is a two-compartments (15 × 20 × 15 cm high) box with one illuminated with white polyvinylchloride walls and the other darkened with black polyvinylchloride walls and a grid floor. A guillotine door separates each compartment. A 60 W lamp positioned 40 cm above the apparatus lights up the white compartment during the experiment. Scrambled foot shocks (0.3 mA for 3 s) could be delivered to the grid floor using a shock generator scrambler (Lafayette Instruments, Lafayette, USA). The guillotine door was initially closed during the training session. Each mouse was placed into the white compartment. After 5 s, the door was raised. […] The step-through latency, that is, the latency spent to enter the darkened compartment, and the shock sensitivity (estimated as 0 = no reaction, 1 = flinching reactions, 2 = flinchings and vocalizations) were recorded. […] The step-through latency and escape latency (corresponding to the time spent to exit the dark compartment) were recorded up to 300 s each. […]
smiles,measurement,setting,value
"O=C(OCCN1CCOCC1)C1(c2ccccc2)CCCCC1 [PRE-084, 2-(4-morpholinethyl)-1-phenylcyclohexanecarboxylate hydrochloride]",object exploration during session 2,"Wfs1^ΔExon8 mice [1]; 0.3 mg/kg ip 30 min before session with two identical objects, Fig. 3a",failed to affect object exploration
same,exploration for the novel object in session 3,"Wfs1^ΔExon8 mice [1]; 0.3 mg/kg ip, Fig. 3b",attenuated the deficit of exploration for the novel object
same,hyperlocomotor response,Wfs1ab^KO larvae; at 3 and 10 µM in the bath,down to the WT line mobility
same,hyperlocomotor response,"Wfs1ab^KO larvae; between 0.1 and 10 µM in the bath, 4 dpf to 5 dpf",concentration-dependent decrease of the hyperlocomotor response
same,number of crossing,Wfs1^ΔExon8 mice [2]; Fig. 6a,slightly reduced
same,time spent in the light compartment,Wfs1^ΔExon8 mice [2]; Fig. 6b,increased up to the levels of Wfs1^WT mice
same,time per visit (light compartment),Wfs1^ΔExon8 mice [2]; Fig. 6c,increased up to the levels of Wfs1^WT mice
same,spontaneous alternation,Wfs1^ΔExon8 mice [3],very significant recovery of spontaneous alternation
same,maze exploration (total number of arm entries),Wfs1^ΔExon8 mice [4]; Fig. 7a,no impact was noted
same,time spent in open arms,Wfs1^ΔExon8 mice [4]; Fig. 7b,slightly increased
same,time per visit in open arms,Wfs1^ΔExon8 mice [4]; Fig. 7c,significantly increased
same,acquisition slopes,"Wfs1^ΔExon8 mice [5]; male Wfs1^ΔExon8 mice, compared to V-treated Wfs1^WT mice, Fig. 4c",only vehicle (V)-treated Wfs1^ΔExon8 mice showed a statistically significant decrease
same,delay in acquisition / swimming latencies,"Wfs1^ΔExon8 mice [5]; male Wfs1^ΔExon8 mice, daily injection 0.3 mg/kg ip 30 min before 1st swim of each training trial, Fig. 4b",prevented this delay and significantly decreased swimming latencies during the two last trials
same,"probe test, exploration of the T quadrant","Wfs1^ΔExon8 mice [5]; male mice, 60-s swim without platform, Fig. 4d",no impact of the PRE-084 was noted
same,escape latency,Wfs1^ΔExon8 mice [6]; Fig. 5b,significantly reduced
same,step-through latency deficit,"Wfs1^ΔExon8 mice [6]; compared to V-treated Wfs1^WT mice, Fig. 5a",very significant for V-treated Wfs1^ΔExon8 mice but not for PRE-084-treated Wfs1^ΔExon8 mice
